Results on 1 compound are retold here after patent US20130303539A1, “COMPOUNDS WITH TRPV4 ACTIVITY, COMPOSITIONS AND ASSOCIATED METHODS THEREOF” (priority 2012, published 2013).

For orientation: IC50 means the concentration that gives 50% inhibition.

For assay [1], the system named is retinal ganglion cells. Put plainly: RGC density in retinal wholemounts of the MB mouse model. In kind it is in vivo. The method, then: FIG. 2 confirms that the mouse model for glaucoma causes RGC degeneration. Specifically, microbeads (MBs) were injected into the anterior chamber of a mouse eye. The MBs increase intraocular IOP above 15 mm Hg by blocking outflow of the aqueous humor within the anterior chamber of the eye. MBs were reinjected as needed to maintain a high IOP, typically one injection every two weeks. Contralateral eyes were injected intraocularly with the vehicle PBS (phosphate buffered saline) as controls. […] IOP levels were measured at least twice weekly before and after intraocular injections. After injections, mice recovered for 48 hours before IOP measurements resumed. Following 4 or 8 weeks of IOP elevation, mice were intracardially perfused with 4% paraformaldehyde in 1×PBS to fix the retinas. Retinas were then removed and processed for immunohistochemistry (IHC). Whole retinas were rinsed with 1×PBS three times at room temperature then incubated in blocking buffer (1×PBS+1% BSA). […] The density of RGCs was imaged with a confocal microscope (Zeiss LSM 510) and quantified by counting NeuN-, CFP- and/or Tuj-1—labeled somata in the RGC layer of the retinal wholemount preparation. […]
RGD density was quantified in retinas isolated from TuJ-1^+ mice and transgenic Thy1-CRP^+ transgenic mice that had been injected with either MBs or vehicle (PBS) then dosed with either compound 1 or vehicle (PBS). […] TuJ-1 was quantified by immunohistochemistry using a Tuj-1-specific antibody conjugated to a fluorescent Alexa 488 or Alexa 594 secondary antibody. […] For fluorescence immunocytochemistry, retinal wholemounts were washed in PBS, then placed for 30 min. to 1 hour in blocking solution (10 ml PBS, 30 μL Triton-X 100, 100 mg bovine serum albumin, 100 μL 10% w/v Na azide solution) in OCT (Ted Pella, Redding, Pa.). […]

For assay [2], the system named is retinal ganglion cells. Kind of assay: In vivo intraocular injection of TRPV4 agonist GSK, NeuN+ RGC count. Conditions: intraocular GSK, 48 hours. How it is done: In this experiment, GSK (100-300 nM) was injected intraocularly with a Hamilton syringe. Retinas were isolated after 48 hours, fixed and labeled with the RGC marker antibody NeuN. NeuN-immunopositive somata in the ganglion cell layer, shown in the panel on the right, were counted. The bar graph represents quantification of NeuN^+ cells in the indicated experimental groups.

Another assay has as its target TRPV4 (Mus musculus, UniProt Q9EPK8). Put plainly: Block of TRPV4 agonist-induced calcium responses in retinal ganglion cells. In kind it is cell-based. More on the design: endogenous in cells; host or cells: retinal Müller glial cells. The method, then:
Calcium responses in retinal ganglion cells were elicited by 25 nM agonist GSK in the presence of varying concentrations of Compound 1. The half-maximal dose of inhibition was ˜300 nM.

A further assay relates to retinal ganglion cell. Put plainly: Pressure-induced inward currents, High-Speed Pressure Clamp, voltage-clamped retinal ganglion cell. The assay is classed as cell-based. Conditions: pressure steps from 10 mm Hg to 50 mm Hg. The method, then:
The cell was voltage clamped and stimulated with the High-Speed Pressure Clamp method, as detailed by Besch et al (Pflugers Arch. 2002 October; 445(1):161-6). This method consists of a specialized headstage coupled to a piezo element in the pressure/vacuum control valve. By balancing the access of pressure to the patch pipette, the device generates rapid and reproducible pressure steps of >±200 mm Hg. Channel activity is recorded in the cell-attached mode or the membrane is “zapped” into the outside-out configuration.

Assay [3] has as its system retinal neurons (RGCs) and glia (Müller cells). Put plainly: Hypotonic stimuli: cell swelling (change in cell area) and [Ca++]i. In kind it is cell-based. The source says: FIG. 18A illustrates the effect of hypotonic stimuli on cell swelling as measured by change in cell area. Hypotonic stimuli were generated by replacing extracellular sodium levels to lower osmolarity from 300 mOsm to 190 mOsm.

Chain of TRPV4 (Q9EPK8 whole entry): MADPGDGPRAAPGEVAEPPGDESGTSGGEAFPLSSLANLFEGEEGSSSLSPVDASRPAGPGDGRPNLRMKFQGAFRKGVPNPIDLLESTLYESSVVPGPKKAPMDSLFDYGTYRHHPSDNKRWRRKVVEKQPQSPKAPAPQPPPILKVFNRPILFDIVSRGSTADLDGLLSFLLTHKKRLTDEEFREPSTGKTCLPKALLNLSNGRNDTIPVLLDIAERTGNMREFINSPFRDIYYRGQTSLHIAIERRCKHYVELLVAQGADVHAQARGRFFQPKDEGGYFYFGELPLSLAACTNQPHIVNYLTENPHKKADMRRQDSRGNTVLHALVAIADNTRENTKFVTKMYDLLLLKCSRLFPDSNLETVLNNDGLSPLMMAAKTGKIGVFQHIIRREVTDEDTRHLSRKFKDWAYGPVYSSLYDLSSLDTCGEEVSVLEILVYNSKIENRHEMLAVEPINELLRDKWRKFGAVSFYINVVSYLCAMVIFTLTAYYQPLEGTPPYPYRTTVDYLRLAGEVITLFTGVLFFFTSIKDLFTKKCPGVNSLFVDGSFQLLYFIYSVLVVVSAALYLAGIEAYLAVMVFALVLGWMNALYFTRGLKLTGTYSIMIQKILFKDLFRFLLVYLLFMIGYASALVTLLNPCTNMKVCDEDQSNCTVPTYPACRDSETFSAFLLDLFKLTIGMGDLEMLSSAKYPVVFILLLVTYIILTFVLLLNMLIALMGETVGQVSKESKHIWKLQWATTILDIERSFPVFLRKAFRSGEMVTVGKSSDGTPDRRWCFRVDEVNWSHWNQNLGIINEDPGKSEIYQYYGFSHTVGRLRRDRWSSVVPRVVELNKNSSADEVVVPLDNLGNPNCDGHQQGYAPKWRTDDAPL

Regarding `Cc1c(C(=O)Nc2cccc(C(F)(F)F)c2)cc(-c2ccccc2)n1CCCN1CCOCC1` [Compound 1, N-(3-(trifluoromethyl)phenyl)-2-methyl-1-(3-morpholinopropyl)-5-phenyl-1H-pyrrole-3-carboxamide], in the assay on retinal ganglion cells [1] (MB- or PBS-injected eyes, IP dosing), the “TuJ-1+ cells in the alpha, beta and omega regions” value is “rescues RGCs across all regions of the retina”. For the same compound, the “CFP+ cells in the alpha, beta and omega regions” value with retinal ganglion cells [1] (Thy1-CFP transgenic mice, MB- or PBS-injected eyes, IP dosing) is “rescues RGCs across all regions of the retina”. For the same compound, the “density of RGCs (TuJ-1+ cells and Thy1:CFP+ cells)” value in the assay on retinal ganglion cells [1] (after 8 weeks of increased IOP, MB-injected mice) is listed as “RGC loss was rescued”. Moreover, the “block of GSK-induced RGC degeneration” value in the assay on retinal ganglion cells [2] is listed as “blocked”. Besides, on TRPV4, the IC50 was around 0.3 µM. Besides, in the assay on retinal ganglion cell, the pressure-induced inward currents entry is reported as “reversibly antagonized”. Moreover, in assay [3] (hypotonic stimuli), the “hypotonic stimuli-induced increase in [Ca++]i (FIG. 18B)” value is “inhibited”. In addition, in assay [3] (osmolarity lowered from 300 mOsm to 190 mOsm), the “cell swelling (change in cell area)” value was “prevented hypotonic stimuli-mediated cell swelling to the same extent as BAPTA-AM”.
